The test has as its target Sterol 24-C-methyltransferase (Leishmania major). In words: In vitro inhibitory concentration against Leishmania major Sterol 24-C-methyltransferase (24-SMT).

pIC50: −log10 of the molar value.

As a reminder, the pIC50 is the negative decadic logarithm of the IC50, by convention in mol/L. A low value points to a large IC50.

`CC(O)(C1CCCNC1)[C@H]1CCC2C3CCC4C[C@@H](O)CC[C@]4(C)C3CC[C@@]21C` (stereo partly drawn) [(3S,10S,13S,17S)-17-(1-Hydroxy-1-piperidin-3-yl-ethyl)-10,13-dimethyl-hexadecahydro-cyclopenta[a]phenanthren-3-ol] showed a pIC50 of 7.00.
Then `CC(O)(C1CCCCN1)[C@H]1CC[C@H]2[C@@H]3CCC4C[C@@H](O[Si](C)(C)C(C)(C)C)CC[C@]4(C)[C@H]3CC[C@]12C` (stereo not given in full), with 4.91; and `CC(O)(c1cccnc1)[C@H]1CCC2C3CCC4C[C@@H](O)CC[C@]4(C)C3CC[C@@]21C` (stereo partly drawn) [(3S,10S,13S,17S)-17-(1-Hydroxy-1-pyridin-3-yl-ethyl)-10,13-dimethyl-hexadecahydro-cyclopenta[a]phenanthren-3-ol], with 4.41; and `CCC(=O)N1CCCCC1C(C)(O)[C@H]1CCC2C3CCC4C[C@@H](O)CC[C@]4(C)C3CC[C@@]21C` (stereo partly drawn) [1-{2-[1-Hydroxy-1-((3S,10S,13S,17S)-3-hydroxy-10,13-dimethyl-hexadecahydro-cyclopenta[a]phenanthren-17-yl)-ethyl]-piperidin-1-yl}-propan-1-one], with 4.89.
Consider `CC(O)(C1CCCNC1)[C@H]1CCC2C3CCC4C[C@@H](O[Si](C)(C)C(C)(C)C)CC[C@]4(C)C3CC[C@@]21C` (stereo partly drawn) [1-[(3S,10S,13S,17S)-3-(tert-Butyl-dimethyl-silanyloxy)-10,13-dimethyl-hexadecahydro-cyclopenta[a]phenanthren-17-yl]-1-piperidin-3-yl-ethanol], for which the pIC50 was 5.10.

The record behind these values is BindingDB's records for doi:10.1021/jm021114j (Cardiff University, 2003).
